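How tested: cells in 96-well plates exposed to compound for 48 hours at five concentrations. The concentration for 50% growth inhibition is given as GI50. TGI is the concentration that stops growth completely.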
Tests used:
Assay in all cases: NCI tumour cell line growth inhibition, 48 h
MOLT-4 leukemia = tested on: MOLT-4 leukemia
HS 578T breast = tested on: HS 578T breast
SF-295 CNS = tested on: SF-295 CNS
OVCAR-8 ovarian = tested on: OVCAR-8 ovarian
CCRF-CEM leukemia = tested on: CCRF-CEM leukemia
HOP-62 NSCLC = tested on: HOP-62 NSCLC
SR leukemia = tested on: SR leukemia
K-562 leukemia = tested on: K-562 leukemia
NCI/ADR-RES ovarian = tested on: NCI/ADR-RES ovarian
U251 CNS = tested on: U251 CNS
SK-OV-3 ovarian = tested on: SK-OV-3 ovarian
TK-10 renal = tested on: TK-10 renal
SNB-19 CNS = tested on: SNB-19 CNS
EKVX NSCLC = tested on: EKVX NSCLC
RXF 393 renal = tested on: RXF 393 renal
BT-549 breast = tested on: BT-549 breast
SNB-75 CNS = tested on: SNB-75 CNS
CAKI-1 renal = tested on: CAKI-1 renal
ACHN renal = tested on: ACHN renal
786-0 renal = tested on: 786-0 renal
NCI-H23 lung = tested on: NCI-H23 lung
SF-268 CNS = tested on: SF-268 CNS
RPMI-8226 leukemia = tested on: RPMI-8226 leukemia
KM12 colon = tested on: KM12 colon
UACC-62 melanoma = tested on: UACC-62 melanoma
A498 renal = tested on: A498 renal
OVCAR-3 ovarian = tested on: OVCAR-3 ovarian
MCF7 breast = tested on: MCF7 breast
SN12C renal = tested on: SN12C renal
SK-MEL-5 melanoma = tested on: SK-MEL-5 melanoma
HL-60(TB) leukemia = tested on: HL-60(TB) leukemia
UACC-257 melanoma = tested on: UACC-257 melanoma
M14 melanoma = tested on: M14 melanoma
NCI-H522 lung = tested on: NCI-H522 lung
COLO 205 colon = tested on: COLO 205 colon
OVCAR-4 ovarian = tested on: OVCAR-4 ovarian
HCT-116 colon = tested on: HCT-116 colon
NCI-H460 lung = tested on: NCI-H460 lung
HCT-15 colon = tested on: HCT-15 colon
SK-MEL-28 melanoma = tested on: SK-MEL-28 melanoma
UO-31 renal = tested on: UO-31 renal
SW-620 colon = tested on: SW-620 colon
A549 NSCLC = tested on: A549 NSCLC
OVCAR-5 ovarian = tested on: OVCAR-5 ovarian
T-47D breast = tested on: T-47D breast
DU-145 prostate = tested on: DU-145 prostate
MDA-MB-435 = tested on: MDA-MB-435
SK-MEL-2 melanoma = tested on: SK-MEL-2 melanoma
HOP-92 NSCLC = tested on: HOP-92 NSCLC
PC-3 prostate = tested on: PC-3 prostate
NCI-H226 lung = tested on: NCI-H226 lung
SF-539 CNS = tested on: SF-539 CNS
HCC-2998 colon = tested on: HCC-2998 colon

CNC(=O)c1c(NC(=O)c2ccc(F)cc2F)sc2c1CCC(=O)C2
GI50 (MOLT-4 leukemia): 230 nM | TGI (MOLT-4 leukemia): > 100000 nM | GI50 (HS 578T breast): 439 nM | TGI (HS 578T breast): 5910 nM | GI50 (SF-295 CNS): 1310 nM | TGI (SF-295 CNS): 5710 nM | GI50 (OVCAR-8 ovarian): 288 nM | TGI (OVCAR-8 ovarian): > 100000 nM | GI50 (CCRF-CEM leukemia): 146 nM | TGI (CCRF-CEM leukemia): > 100000 nM | GI50 (HOP-62 NSCLC): 1130 nM | TGI (HOP-62 NSCLC): > 100000 nM | GI50 (SR leukemia): 89 nM | TGI (SR leukemia): > 100000 nM | GI50 (K-562 leukemia): 133 nM | TGI (K-562 leukemia): > 100000 nM | GI50 (NCI/ADR-RES ovarian): 265 nM | TGI (NCI/ADR-RES ovarian): > 100000 nM | GI50 (U251 CNS): 288 nM | TGI (U251 CNS): > 100000 nM | GI50 (SK-OV-3 ovarian): 2590 nM | TGI (SK-OV-3 ovarian): 9620 nM | GI50 (TK-10 renal): 431 nM | TGI (TK-10 renal): 17700 nM | GI50 (SNB-19 CNS): 440 nM | TGI (SNB-19 CNS): > 52400 nM | GI50 (EKVX NSCLC): 253 nM | TGI (EKVX NSCLC): > 100000 nM | GI50 (RXF 393 renal): 182 nM | TGI (RXF 393 renal): 1730 nM | GI50 (BT-549 breast): 345 nM | TGI (BT-549 breast): 2860 nM | GI50 (SNB-75 CNS): 722 nM | TGI (SNB-75 CNS): 3300 nM | GI50 (CAKI-1 renal): 236 nM | TGI (CAKI-1 renal): 1040 nM | GI50 (ACHN renal): 349 nM | TGI (ACHN renal): 1080 nM | GI50 (786-0 renal): 390 nM | TGI (786-0 renal): 13600 nM | GI50 (NCI-H23 lung): 251 nM | TGI (NCI-H23 lung): > 100000 nM | GI50 (SF-268 CNS): 428 nM | TGI (SF-268 CNS): > 100000 nM | GI50 (RPMI-8226 leukemia): 227 nM | TGI (RPMI-8226 leukemia): > 100000 nM

CC1(C)CC[C@]23CC[C@]4(C)[C@H](CC[C@@H]5[C@@]6(C)CC[C@H](N)C(C)(C)[C@@H]6CC[C@]54C)[C@H]2[C@H]1OC3
GI50 (MOLT-4 leukemia): 2170 nM | TGI (MOLT-4 leukemia): 7300 nM | GI50 (HS 578T breast): 2580 nM | TGI (HS 578T breast): 6900 nM | GI50 (KM12 colon): 1920 nM | TGI (KM12 colon): 3650 nM | GI50 (UACC-62 melanoma): 1850 nM | TGI (UACC-62 melanoma): 3900 nM | GI50 (A498 renal): 11700 nM | TGI (A498 renal): 27100 nM | GI50 (SF-295 CNS): 1750 nM | TGI (SF-295 CNS): 3270 nM | GI50 (OVCAR-3 ovarian): 1830 nM | TGI (OVCAR-3 ovarian): 3480 nM | GI50 (MCF7 breast): 1620 nM | TGI (MCF7 breast): 3320 nM | GI50 (SN12C renal): 1790 nM | TGI (SN12C renal): 3570 nM | GI50 (SK-MEL-5 melanoma): 1740 nM | TGI (SK-MEL-5 melanoma): 3200 nM | GI50 (HL-60(TB) leukemia): 1670 nM | TGI (HL-60(TB) leukemia): 3780 nM | GI50 (OVCAR-8 ovarian): 2570 nM | TGI (OVCAR-8 ovarian): 6840 nM | GI50 (UACC-257 melanoma): 15300 nM | TGI (UACC-257 melanoma): 35600 nM | GI50 (CCRF-CEM leukemia): 2110 nM | TGI (CCRF-CEM leukemia): 36300 nM | GI50 (HOP-62 NSCLC): 1880 nM | TGI (HOP-62 NSCLC): 3780 nM | GI50 (SR leukemia): 663 nM | TGI (SR leukemia): 4560 nM | GI50 (K-562 leukemia): 2080 nM | TGI (K-562 leukemia): 5940 nM | GI50 (M14 melanoma): 1920 nM | TGI (M14 melanoma): 3880 nM | GI50 (NCI-H522 lung): 2980 nM | TGI (NCI-H522 lung): 9750 nM | GI50 (U251 CNS): 1790 nM | TGI (U251 CNS): 3660 nM | GI50 (COLO 205 colon): 1910 nM | TGI (COLO 205 colon): 3620 nM | GI50 (OVCAR-4 ovarian): 2750 nM | TGI (OVCAR-4 ovarian): 7480 nM | GI50 (SK-OV-3 ovarian): 14100 nM | TGI (SK-OV-3 ovarian): 28700 nM | GI50 (HCT-116 colon): 1740 nM | TGI (HCT-116 colon): 3200 nM | GI50 (NCI-H460 lung): 1850 nM | TGI (NCI-H460 lung): 3600 nM | GI50 (HCT-15 colon): 1620 nM | TGI (HCT-15 colon): 3150 nM | GI50 (SK-MEL-28 melanoma): 1830 nM | TGI (SK-MEL-28 melanoma): 3930 nM | GI50 (TK-10 renal): 15700 nM | TGI (TK-10 renal): 31100 nM | GI50 (UO-31 renal): 1500 nM | TGI (UO-31 renal): 2970 nM | GI50 (SW-620 colon): 2000 nM | TGI (SW-620 colon): 4100 nM | GI50 (A549 NSCLC): 1980 nM | TGI (A549 NSCLC): 4360 nM | GI50 (OVCAR-5 ovarian): 1870 nM | TGI (OVCAR-5 ovarian): 3950 nM | GI50 (SNB-19 CNS): 1900 nM | TGI (SNB-19 CNS): 3720 nM | GI50 (T-47D breast): 3750 nM | TGI (T-47D breast): 19300 nM | GI50 (EKVX NSCLC): 1830 nM | TGI (EKVX NSCLC): 3840 nM | GI50 (RXF 393 renal): 1580 nM | TGI (RXF 393 renal): 2940 nM | GI50 (BT-549 breast): 15400 nM | TGI (BT-549 breast): 29000 nM | GI50 (SNB-75 CNS): 17000 nM | TGI (SNB-75 CNS): 38900 nM | GI50 (CAKI-1 renal): 1690 nM | TGI (CAKI-1 renal): 3190 nM | GI50 (DU-145 prostate): 1890 nM | TGI (DU-145 prostate): 3670 nM | GI50 (ACHN renal): 1820 nM | TGI (ACHN renal): 3260 nM | GI50 (786-0 renal): 1660 nM | TGI (786-0 renal): 3260 nM | GI50 (MDA-MB-435): 1910 nM | TGI (MDA-MB-435): 3730 nM | GI50 (SK-MEL-2 melanoma): 2980 nM | TGI (SK-MEL-2 melanoma): 10100 nM | GI50 (SF-268 CNS): 5980 nM | TGI (SF-268 CNS): 23500 nM | GI50 (HOP-92 NSCLC): 2500 nM | TGI (HOP-92 NSCLC): 6590 nM | GI50 (PC-3 prostate): 2340 nM | TGI (PC-3 prostate): 6140 nM | GI50 (NCI-H226 lung): 5220 nM | TGI (NCI-H226 lung): 31100 nM | GI50 (SF-539 CNS): 1740 nM | TGI (SF-539 CNS): 3220 nM | GI50 (HCC-2998 colon): 1760 nM | TGI (HCC-2998 colon): 3330 nM | GI50 (RPMI-8226 leukemia): 2730 nM | TGI (RPMI-8226 leukemia): 7210 nM
